Test results: patent US20210002725A1, “METHODS FOR THE DIAGNOSIS OF METABOLIC DISORDERS USING EPIMETABOLIC SHIFTERS, MULTIDIMENSIONAL INTRACELLULAR MOLECULES, OR ENVIRONMENTAL INFLUENCES” (Berg LLC, priority 2009, published 2021)

Key:
[1] = system: Pyruvate Kinase M2 (PKM2); test: Western blot of Pyruvate Kinase M2 levels in cells treated with Coenzyme Q10; format: cell-based, human
Method: The samples were processed and run on a 4-12% Bis-Tris Novex NuPAGE gel as described above. The gels were run, transferred and stained essentially as described above.
The lactate dehydrogenase blots were stripped by incubating for 30 minutes with methanol, followed by two 10 minute washes with TBS-T, then 30 minutes of incubation with Stripping buffer at 50 deg C., and followed by two washes with 100 ml or more of TBS-T for 30′ each. The 2 blots were scanned in laser scanner to check for complete stripping. The blots were activated with methanol for 5 seconds, washed with water for 5 minutes, and TBST for 15 minutes. The blots were blocked for 1 hour with 5% blocking reagent in TBS-T at room temperature and then washed 3 times with TBS-T (1×-15′; 2×5′ each) and probed with the rabbit polyclonal antibody for Pyruvate Kinase M2 in 5% BSA (NOVUS BIOLOGICALS catalog #H00005315-D01P) at 1:500 dilution overnight at 4 deg C with shaking. After the overnight incubation with primary antibody for Pyruvate Kinase M2, the membranes were washed 3 times with TBS-T (1×-15′; 2×5′ each) and probed with the secondary antibody (antirabbit; 1:10,000 dilution) for 1 h on the orbital tilting shaker at room temperature. After 1 h of incubation with secondary antibodies, the blots were washed 3 times with TBS-T (1×-15′; 2×5′ each) and then incubated with ECF reagent for 5 minutes and then each blot scanned with 5100 Fuji Laser scanner at 25 uM resolution, 16 bit, green laser, at 400V and at 500 V.
The HASMC samples were processed and the gels were run, transferred, stained and scanned essentially as described above.
The above blots were stripped by incubating for 30 minutes with methanol, followed by two 10 minute washes with TBS-T, then 30 minutes of incubation with Stripping buffer at 50 deg C., and followed by two washes with 100 ml or more of TBS-T for 30′ each. The blots were scanned in laser scanner to check for complete stripping. The blots were activated with methanol for 5 seconds, washed with water for 5 minutes, and TBST for 15 minutes. The blots were blocked for 1 hour with 5% blocking reagent in TBS-T at room temperature and then washed 3 times with TBS-T (1×-15′; 2×5′ each) and probed with the primary antibody for PKM2, SDHB or SDHC in 5% BSA in TBS-T by incubation overnight at 4 deg C. with gentle shaking. The primary antibody for SDHC (ABNOVA H00006391-M02; antimouse) was at 1:500 dilution. The primary antibody for SDHB was from Abcam ab4714-200; antimouse; at 1:1000 dilution. The primary antibody for Pyruvate Kinase M2 (PKM2) was from Novus Biologicals H00005315-DOIP; antirabbit; at 1:500 dilution. After incubation with primary antibodies, the membranes were washed 3 times with TBS-T (1×-15′; 2×5′ each) and probed with the secondary antibody (SDHB & C antimouse; and PKM2 antirabbit; 1:10,000 dilution) for 1 hon the orbital tilting shaker at room temperature. After 1 h of incubation, the blots were washed 3 times with TBS-T (1×-15′; 2×5′ each) and incubated with ECF reagent for 5 minutes and then each blot scanned with 5100 Fuji Laser scanner at 25 uM resolution, 16 bit, green laser, at 400V and at 500 V.

Hif1 alpha = test: Western blot of Hif1 alpha levels in cells treated with Coenzyme Q10; format: cell-based, human; settings: whole cell lysates of normal cells
Method: The Actin blots were stripped by incubating for 30 minutes with methanol, followed by two 10 minute washes with TBS-T, then 30 minutes of incubation with Stripping buffer at 50 deg C., and followed by two washes with 100 ml or more of TBS-T for 30′ each. The blots were scanned in laser scanner to check for complete stripping. The blots were activated with methanol for 5 seconds, washed with water for 5 minutes, and TBST for 15 minutes. The blots were blocked for 1 hour with 5% blocking reagent in TBS-T at room temperature and then washed 3 times with TBS-T (1×-15′; 2×5′ each) and probed with the primary antibody for Hif 1 alpha, Caspase 3 or PDHB in 5% BSA (at 1:200 by incubation overnight at 4 deg C. with gentle shaking. The primary antibody for Hif 1 alpha (Abcam ab2185; antirabbit) was at 1:500 dilution in 5% BSA. The primary antibody for Caspase 3 (Santacruz sc7272; antirabbit) was at 1:200 dilution in 5% BSA. The primary antibody for Pyruvate Dehydrogenase beta (PDHB) (Novus Biologicals H00005162-M03; antimouse) was at 1:500 dilution in 5% BSA. After incubation with primary antibodies, the membranes were washed 3 times with TBS-T (1×-15′; 2×5′ each) and probed with the secondary antibody (PDHB antimouse; Hif 1a and Caspase 3 antirabbit; 1:10,000 dilution) for 1 h at room temperature. […]

COC1=C(OC)C(=O)C(C/C=C(\C)CC/C=C(\C)CC/C=C(\C)CC/C=C(\C)CC/C=C(\C)CC/C=C(\C)CC/C=C(\C)CC/C=C(\C)CC/C=C(\C)CCC=C(C)C)=C(C)C1=O [Q10, Coenzyme Q10]
PKM2 Upper Band Normalized Intensity ([1]; HASMC, 5 g, 48 h, 50 μM): 811 | PKM2 Upper Band Normalized Intensity ([1]; HASMC, 5 g, 48 h, 100 μM): 611 | PKM2 Upper Band Normalized Intensity ([1]; HASMC, 22 G, 24 h, 50 μM): 477 | PKM2 Upper Band Normalized Intensity ([1]; HASMC, 22 G, 24 h, 100 μM): 701 | PKM2 Upper Band Normalized Intensity ([1]; HASMC, 22 G, 48 h, 50 μM): 595 | PKM2 Upper Band Normalized Intensity ([1]; HASMC, 22 G, 48 h, 100 μM): 496 | PKM2 Upper Band Normalized Volume ([1]; HepG2, 5 g, 24 h, 50 μM): 29269 | PKM2 Upper Band Normalized Volume ([1]; HepG2, 5 g, 24 h, 100 μM): 18307 | PKM2 Upper Band Normalized Intensity ([1]; HepG2, 5 g, 48 h, 50 μM): 303 | PKM2 Upper Band Normalized Intensity ([1]; HepG2, 5 g, 48 h, 100 μM): 354 | PKM2 Upper Band Normalized Volume ([1]; HepG2, 22 G, 24 h, 50 μM): 22294 | PKM2 Upper Band Normalized Volume ([1]; HepG2, 22 G, 24 h, 100 μM): 19560 | PKM2 Upper Band Normalized Intensity ([1]; HepG2, 22 G, 48 h, 50 μM): 562 | PKM2 Upper Band Normalized Intensity ([1]; HepG2, 22 G, 48 h, 100 μM): 601 | Hif1a lower band (Hif1 alpha): showed a decrease
